Data reported in patent US4029881A, “Antibiotic 9-acyl-3"-thiomethoxymethyl-SF-837 composition and process for preparing the same” (Meiji Seika Co., Ltd., priority 1972, dated 1977).
In brackets after ≈: the same amount, converted by molar mass. Like-named read-outs stand apart in the source and are kept apart here.

Columns and labels:
[1] = test system: Staphylococcus aureus 209-P; assay: therapeutic effect, treatment of animals infected by Staphylococcus (Table 3 A); assay type: in vivo, ICR-JCL mouse; settings: orally once, 10 LD50
Source text: Therapeutic effect of the 9-acyl-3"-thiomethoxymethyl-SF-837 substance against bacterial infections.
A. treatment of animals infected by Staphylococcus. Animals tested: ICR-JCL mouse, 4-week old, male, 10 heads for each group.
Bacterium inoculated: Staphylococcus aureus 209-P.
Method of administration: Samples were suspended in a sterilized 2% aqueous gum arabic solution and administered once to the mice inoculated with the bacterium.

[2] = test system: Streptococcus pyrogenes Ti-125 Gr-A Type I; assay: therapeutic effect, treatment of animals infected by Streptococcus (Table 3 B); assay type: in vivo, ICR-JCL mouse; settings: orally once, 5LD50
Protocol: B. treatment of animals infected by Streptococcus
Animals tested: The same as in A.
Method of administration: The same as in A.
Bacterium inoculated: Streptococcus pyrogenes Ti-125 Gr-A Type I.
Inoculum size: 1× 10^7 cells/0.5 ml/mouse(5LD50).

acute toxicity = assay type: in vivo, ICR-JCL mice; settings: intraperitoneal, male mice, dead/tested
Source text: The acute toxicity of the 9-acyl-3"-thiomethoxymethyl-SF-837 substance
Animals tested: ICR-JCL mice, male.
Samples: Each substance was suspended in a 5% aqueous arabic gum solution.
Method of administration: Intraperitoneal injection.

[3] = test system: Mycoplasma gallisepticum KP-3; assay: antimicrobial spectrum, minimal inhibitory concentration; assay type: cell-based; settings: Mycoplasmoides gallisepticum, KP3
Source text: (§1) The antimicrobial spectrum of the 9-acyl-3"-thiomethoxymethyl-SF-837 substance obtained according to the present invention is shown in Table 1.
(§2) The antimicrobial spectrum of the 9-acetyl- and 9-propionyl-3"-thiomethoxymethyl-SF-837 substance made according to the invention.

[4] = test system: Mycoplasma gallisepticum CH3T; assay: as above; assay type: cell-based; settings: Mycoplasmoides gallisepticum
Source text: as §1, §2

[5] = test system: Mycoplasma gallisepticum KP-13; assay: as above; assay type: cell-based; settings: Mycoplasmoides gallisepticum, KP13
Source text: as §1, §2

Neisseria meningitidis = assay: as above; assay type: cell-based
Source text: as §1, §2

Staphylococcus aureus = assay: as above; assay type: cell-based
Source text: as §1, §2

[6] = test system: Mycoplasma gallisepticum S-6; assay: as above; assay type: cell-based; settings: Mycoplasmoides gallisepticum, S6
Source text: as §1, §2

[7] = test system: Mycoplasma gallisepticum S-35P; assay: as above; assay type: cell-based; settings: Mycoplasmoides gallisepticum, read-out: Minimal Inhibitory Concentration
Source text: as §1, §2

Vibrio coli 34E = assay: as above; assay type: cell-based; settings: Campylobacter coli
Source text: as §1, §2

Vibrio coli SD-358 = assay: as above; assay type: cell-based; settings: Campylobacter coli, SD358
Source text: as §1, §2

[8] = test system: Mycoplasma gallisepticum S-15P; assay: as above; assay type: cell-based; settings: Mycoplasmoides gallisepticum, read-out: Minimal Inhibitory Concentration
Source text: as §1, §2

Vibrio coli SD-362 = assay: as above; assay type: cell-based; settings: Campylobacter coli, SD362
Source text: as §1, §2

Escherichia coli = assay: as above; assay type: cell-based
Source text: as §1, §2

Mycobacterium 607 = assay: as above; assay type: cell-based
Source text: as §1, §2

[9] = test system: Neisseria gonorrhoeae Megurita; assay: as above; assay type: cell-based
Source text: as §1, §2

[10] = test system: Mycoplasma gallisepticum T-4AT (tyrosine-resistant); assay: microbe, parasite or virus in culture; assay type: cell-based; settings: Mycoplasmoides gallisepticum, read-out: Minimal Inhibitory Concentration
Source text: as §1, §2

[11] = test system: Staphylococcus aureus Strain 209-P; assay: therapeutic effect on staphylococcal infection of mice (Table 2); assay type: in vivo; settings: 350mg/Kg oral; intraperitoneal infection by Staphylococcus aureus 209-P
Source text: Since the 9-acyl-3"-thiomethoxymethyl-SF-837 substance is inhibitory against Gram-positive bacteria as the SF-837 substance is, it is as well available as an antimicrobial agent. Particularly, it is notable that the in vitro antimicrobial activity of the 9-acyl-3"-thiomethoxymethyl-SF-837 substance of the present invention against Escherichia coli, Mycobacterium, Mycoplasma, and macrolide-resistant Mycoplasma is higher than that of the SF-837 substance. Furthermore, the results of the therapeutic tests using the mice infected by Staphylococcus aureus Strain 209 P was better with the said 9-acyl-3"-thiomethoxymethyl-SF-837 substance than with its parent substance (see Table 2).
Therapeutic effect of the 9-acyl-3"thiomethoxy-methyl-SF-837 substance made according to the invention on the staphylococcal infection of mice in laboratory*).
*)Infection of mouse intraperitoneally by Staphylococcus aureus Strain

[12] = S35P, Mycoplasma gallisepticum S-35P
[13] = S15P, Mycoplasma gallisepticum S-15P

Row | Structure (SMILES) | Survival rate ([1]; 150 mg/Kg) | Survival rate ([1]; 200 mg/Kg) | Survival rate ([1]; 350 mg/Kg) | Survival rate ([1]; 400 mg/Kg) | Survival rate ([2]; 100 mg/Kg) | Survival rate ([2]; 200 mg/Kg) | Survival rate ([2]; 300 mg/Kg) | Survival rate ([2]; 400 mg/Kg) | Mortality (acute toxicity; 2,000 mg/Kg) | Mortality (acute toxicity; 4,000 mg/Kg) | MIC [3] | MIC [4] | MIC [5] | MIC (Neisseria meningitidis) | MIC (Staphylococcus aureus) | MIC [6] | MIC (Vibrio coli 34E) | MIC (Vibrio coli SD-358) | MIC (Vibrio coli SD-362) | MIC (Escherichia coli) | also measured
1 | CCC(=O)OC1CC(=O)OC(C)CC=CC=CC(OC(C)=O)C(C)CC(CC=O)C(OC2OC(C)C(OC3CC(C)(O)C(OC(=O)CC)C(C)O3)C(N(C)C)C2O)C1OC (stereo not shown) [9-Acetyl-SF-837, reference compound] | 80% | 100% | 100% | 100% | 100% | 100% | 100% | 100% | 0/3 | 1/3 | – | – | – | – | – | – | – | – | – | – | –
2 | CCC(=O)OC1CC(=O)OC(C)CC=CC=CC(OC(C)=O)C(C)CC(CC=O)C(OC2OC(C)C(OC3CC(C)(OCSC)C(OC(=O)CC)C(C)O3)C(N(C)C)C2O)C1OC (stereo not shown) [9-acetyl-3"-thiomethoxymethyl-SF-837] | 30% | 80% | 90% | 100% | 100% | 100% | 100% | 100% | 0/3 | 0/3 | < 0.1 mg/L | < 0.1 mg/L | < 0.1 mg/L | 6.25 mg/L (≈ 6.82 µM) | 0.78 mg/L (≈ 0.851 µM) | < 0.1 mg/L | 25 mg/L (≈ 27.3 µM) | > 50 mg/L | 25 mg/L (≈ 27.3 µM) | 50 mg/L (≈ 54.6 µM) | MIC [7, 12]: < 0.1 mg/L; MIC [8, 13]: < 0.1 mg/L; MIC (Mycobacterium 607): 6.25 mg/L (≈ 6.82 µM); MIC [9]: 100 mg/L (≈ 109 µM); MIC [10]: 12.5 mg/L (≈ 13.6 µM); Survival rate in a week after oral administration [11]: 90%
3 | CCC(=O)OC1C=CC=CCC(C)OC(=O)CC(OC(=O)CC)C(OC)C(OC2OC(C)C(OC3CC(C)(OCSC)C(OC(=O)CC)C(C)O3)C(N(C)C)C2O)C(CC=O)CC1C (stereo not shown) [9-propionyl-3"-thiomethoxymethyl-SF-837] | 30% | 70% | 90% | 100% | 100% | 100% | 100% | 100% | 0/3 | 0/3 | < 0.1 mg/L | < 0.1 mg/L | < 0.1 mg/L | 6.25 mg/L (≈ 6.72 µM) | 0.78 mg/L (≈ 0.839 µM) | < 0.1 mg/L | 25 mg/L (≈ 26.9 µM) | > 50 mg/L | 25 mg/L (≈ 26.9 µM) | 50 mg/L (≈ 53.8 µM) | MIC [7, 12]: < 0.1 mg/L; MIC [8, 13]: < 0.1 mg/L; MIC (Mycobacterium 607): 6.25 mg/L (≈ 6.72 µM); MIC [9]: 100 mg/L (≈ 108 µM); MIC [10]: 12.5 mg/L (≈ 13.4 µM); Survival rate in a week after oral administration [11]: 90%
4 | CCC(=O)OC1CC(=O)OC(C)CC=CC=CC(O)C(C)CC(CC=O)C(OC2OC(C)C(OC3CC(C)(O)C(OC(=O)CC)C(C)O3)C(N(C)C)C2O)C1OC (stereo not shown) [SF-837] | 20% | 40% | 60% | 90% | 70% | 90% | 100% | 100% | 2/3 | 2/3 | < 0.05 mg/L | < 0.05 mg/L | < 0.05 mg/L | 6.25 mg/L (≈ 7.68 µM) | 0.78 mg/L (≈ 0.958 µM) | 0.1 mg/L (≈ 0.123 µM) | 12.5 mg/L (≈ 15.4 µM) | > 50 mg/L | > 50 mg/L | 100 mg/L (≈ 123 µM) | MIC [7]: 0.05 mg/L (≈ 0.0614 µM); MIC [8]: 0.05 mg/L (≈ 0.0614 µM); MIC (Mycobacterium 607): 25 mg/L (≈ 30.7 µM); MIC [9]: 25 mg/L (≈ 30.7 µM); MIC [10]: > 100 mg/L; Survival rate in a week after oral administration [11]: 37.5%
